# Data reported in patent US7157256B2, “Method for producing para-hydroxystyrene and other multifunctional aromatic compounds using two-phase extractive fermentation” (E. I. du Pont de Nemours and Company, priority 2003, dated 2007).
# Several values for one entry are separate records, joined by “and”; a condition that tells them apart may be missing. Equal values may be shown once.
# Experiments:
# [1] = system: E. coli WWQ51.1; assay: Growth of E. coli with added pHS in two-phase fermentation; assay type: cell-based; settings: 0.5 mL pHS (10% w/v) added; 20 mL 2-Undecanone; IPTG 0.5 mM
# Experimental: The strain used in this study was E. coli WWQ51.1, as described in Example 3. The conditions were similar to those described in Example 3. Eight test cultures were inoculated; six contained 20 mL of 2-undecanone, the other two contained 20 mL of 1-undecanol. A 10% w/v solution of pHS in propylene glycol (0.5 mL), obtained from Sigma-Aldrich, Milwaukee, Wis., was added to two of the cultures containing 2-undecanone, as specified in Table 7.
# The cultures were incubated in 250 mL baffled flasks at 35° C. and 300 rpm for 24 h in an incubator shaker. After this time, a sample of the aqueous phase was withdrawn and the pH, OD550, and the concentration of the fermentation products were measured, as described supra. The organic phase was also sampled and the concentration of CA and pHS were determined using HPLC, as described supra.
# [2] = system: E. coli TY1 (DGL430); assay: Effect of pHCA and pHS on growth and fermentation of E. coli, shake flasks; assay type: cell-based; settings: E. coli TY1 shake flask
# Experimental: This study was done using E. coli TY1 (DGL430), a tyrosine overproducing strain obtained from OmniGene Bioproducts, Inc. (Cambridge, Mass.). This strain also produces phenylalanine. The seed culture of this strain was propagated in a medium consisting of MgSO4.7H2O (0.5 g/L), (NH4)2SO4 (4 g/L), MOPS (20.9 g/L) and 10 mL of phosphate solution. The pH of the seed medium was adjusted to pH 6.8 and then the medium was steam-sterilized. The phosphate solution contained KH2PO4 (57.3 g/L) and K2HPO4 (110.2 g/L) and was adjusted to pH 6.8. The following solutions were then aseptically added to the seed medium to give the final concentration given in parentheses: thiamine (1 mg/L), glucose (1 g/L), lactose (15 g/L), 5 mL of a trace element solution, and tetracycline (5 mg/L). The trace element solution contained citric acid (10 g/L), CaCl2.2H2O (1.5 g/L), FeSO4.7H2O (5 g/L), ZnSO4.7H2O (0.39 g/L) and CuSO4.5H2O (0.38 g/L). The seed medium was inoculated from a frozen pre-seed culture and was grown in 250 mL baffled flasks in an Innova 4000 incubator shaker (New Brunswick Scientific Co., Edison, N.J.), incubated at 35° C. and 300 rpm for 12–16 h. One milliliter of this seed culture was used to inoculate each of the test cultures.
# The test medium was 50 mL of an aqueous solution containing: (NH4)2SO4 (4 g), 1 mL of phosphate solution, MgSO4.7H2O (0.5 g), and MOPS (20.9 g), with the pH adjusted to 7.0. After sterilization of this medium, thiamine (1 mg/L), 5 mL of trace element solution, glucose (2 g/L), lactose (15 g/L), IPTG (0.5 mM), and tetracycline (10 mg/L) were aseptically added to give the final concentration given in parentheses. The 250 mL baffled flasks containing 50 mL of the test medium were inoculated with the seed culture and were incubated at 35° C. and 300 rpm for 42 h in the incubator shaker. Samples of the culture were taken at various times and the optical density at 550 nm (OD550) was measured spectrophotometrically. The pH of these samples was also measured. After completion of the fermentation, the tyrosine and phenylalanine concentrations in the culture were measured using HPLC, as described supra.
# This experiment was repeated using pHS in place of pHCA.
structure (smiles),measurement,setting,value
"C=Cc1ccc(O)cc1 [pHS, para-hydroxystyrene]",OD550 24 h,[1],15.7 and 12.5
same,concentration at which complete inhibition of growth / no growth was observed,[2],0.4 g/L
same,concentration that inhibited cell growth,[2],0.2 g/L
